Converted amounts (≈) assume the structure as drawn. Bridge positions count the residues as written; N and C are the ends. Peptide text beside a SMILES is read from it.
Experiments:
[1] = test system: MRSA USA300 cells; test: Serial passage / resistance assay; format: cell-based, Staphylococcus aureus; conditions: for fold increase in MIC during serial passage: sub-MIC exposure over 20 days, MRSA USA300; for resistant mutants after serial passage: sub-lethal doses over a period of 20 days
Description: In vitro evaluation of the potential for MRSA USA3000 cells to develop resistance to HG2 and HG4 was performed as follows. […] Cultures from the highest concentration that supported growth were diluted 1: 1000 in MHB and used to provide the inoculum for the next passage day. This process was performed for a total duration of 20 days. Any putative mutants recovered were isolated via streak dilution for three generations on MHA, prior to further characterisation.

[2] = test system: B. cereus; test: microbe, parasite or virus in culture; format: cell-based, Bacillus cereus
Description: To determine the antimicrobial activity of the new antimicrobial peptides, HG2 and HG4, their minimum inhibitory concentrations (MICs) were determined by broth microdilution method[51] in cation adjusted Mueller Hinton broth (MHB) following the International Organisation for Standardisation (ISO) 20776-1 standard for MIC testing using a final bacterial inoculum of 5 × 10^5 CFU/ml[52]. […] The peptides dissolved in sterile distilled water were added to bacteria culture and incubated overnight at appropriate conditions. The MICs of the peptides and comparator antibiotics were recorded after 18–24 h. The minimum bactericidal concentrations (MBCs) were also determined and were taken as the lowest concentration of the antimicrobial that prevented the growth of bacterial cells after the subculture of cells (from MIC treatment) onto antibiotic-free media.

[3] = test system: eLUCidate Raw 264.7 NF-kB reporter cell line
[4] = test system: MRSA USA300 biofilms; test: Anti-biofilm activity, 96-well biofilm model (crystal violet); format: cell-based, Staphylococcus aureus; conditions: established MRSA USA300 biofilms; for reduction in biofilm formation: sub-MIC (0.25x and 0.5 x MIC) and MIC concentrations; for biofilm reduction: supra-MIC concentrations (2x and 4x MIC)
Description: The ability of HG2 and HG4 to disrupt established S. aureus biofilms was measured using a 96-well format as described by ref. [14]. MRSA USA300 cultures grown overnight in Brain Heart Infusion (BHI) broth was resuspended to OD600nm = 0.02 and grown without aeration at 37 °C in 96-well tissue culture plates for an additional 24 h. The planktonic cells were removed by three PBS (phosphate-buffered saline) washes. Thereafter, fresh BHI broth containing peptides HG2 or HG4 at sub- and supra-MIC concentrations (0.5, 1, 2 and 4x MIC) was added to wells containing adherent cells and incubated without shaking for another 24 h. Planktonic cells were again removed by three PBS washes. Biofilms were fixed with methanol for 20 min, stained with 0.4% (w/v) crystal violet solution for 20 min and re-solubilised with 33% (v/v) acetic acid. The optical density of re-solubilised biofilms was measured at 570 nm in a microplate spectrophotometer. The percentage biofilm reduction was calculated using the equation below: Percentagebiofilmreduction(%)=PositiveControl−ODofSample/PositiveControl−NegativeControl The plot showing anti-biofilm activity (% biofilm reduction) was generated using the ‘ggplot2’ package[53] in R (v 4.1.1)[54] with log-linear regression performed using lm() function.

[5] = test system: MRSA USA300 cells; test: ATP depletion assay; format: cell-based, Staphylococcus aureus; conditions: P = 0.018 (HG2) and 0.003 (HG4)
Description: Adenosine triphosphate (ATP) drives many cellular and metabolic processes and can be used to ascertain the integrity of cells. […] Briefly, in a clear 96-well plate, samples and ATP standard provided with the kit were added in a reaction mix containing ATP assay buffer, ATP Probe and Converter and Developer mix. The reaction mix was incubated in the dark at room temperature for 30 min. Absorbance (570 nm0 was then measured in a microplate spectrophotometer. The background ATP levels obtained from samples and ATP standards were autocorrected by subtracting ATP levels from blank treatments. The amount of ATP in unknown samples was determined from the ATP standard curve and calculated using the formula in the instruction manual. All measurements were performed in triplicates.

[6] = Pure lipid preference order from critical pressure of insertion; format: binding; conditions: pure bacterial and eukaryotic lipids
Description: (§1) Peptide–lipid interaction was measured using a lipid monolayer formed at the air:water interface with total lipid extracts and pure lipids. Total lipids were extracted from overnight cultures of MRSA or human erythrocytes using the Folch extraction procedure[14],[40]. Extracted total lipids were dried, re-solubilised in chloroform:methanol (2:1, v/v) and stored at −20 °C under nitrogen. […] The variation of the surface pressure caused by peptide insertion was then continuously monitored using a fully automated microtensiometer (µTROUGH SX, Kibron Inc, Finland) until it reached equilibrium (maximal surface pressure increase is usually obtained after 15–25 min). […] In other experiments, the critical pressure of insertion of HG2 or HG4 in the total lipid extracts and pure lipids was measured as follows[14],[56]. Briefly, in these experiments, the initial pressure of the lipid monolayer was set up at different values (between 10 and 30 mN/m) and the variation of pressure caused by the injection of the peptide was measured. […] All experiments were carried out in a controlled atmosphere at 20 ± 1 °C and data were analyzed using the Firmware 2.5 programme (Kibron Inc.). The accuracy of the system under our experimental conditions was determined to be ±0.25 mN/m for surface pressure measurements.

[7] = Peptide-lipid interaction and insertion, lipid monolayer; format: binding, human; conditions: Erythrocyte extract; initial surface pressure 30+/-0.5 mN/m
Description: as §1

Row | Compound | fold increase in MIC during serial passage [1] | resistant mutants after serial passage [1] | MIC [2] | toxicity against reporter cell line (resazurin assay) [3] | reduction in biofilm formation [4] | biofilm reduction [4] | effect on ATP concentration [5] | order of preference for pure lipids (critical pressure of insertion) [6] | Speed of insertion [7]
1 | CC[C@H](C)[C@H](NC(=O)[C@H](CC(C)C)NC(=O)[C@H](CC(C)C)NC(=O)[C@H](CC(C)C)NC(=O)[C@H](CCCCN)NC(=O)[C@H](CCCCN)NC(=O)[C@@H](N)CCSC)C(=O)N[C@@H](CC(C)C)C(=O)N[C@@H](Cc1ccccc1)C(=O)N[C@H]1CSSC[C@@H](C(=O)N[C@@H](CCCCN)C(=O)N[C@@H](CCCCN)C(=O)N[C@@H](C)C(=O)N2CCC[C@H]2C(N)=O)NC(=O)CNC(=O)[C@H](C)NC(=O)[C@H](CC(C)C)NC(=O)[C@H](C)NC(=O)[C@H](CC(C)C)NC(=O)[C@H](C)NC(=O)[C@H](CC(C)C)NC1=O [HG2] (H-MKKLLLILFCLALALAGCKKAP-NH2; disulfide 10-18; N-terminus assumed) | 1–2 fold | did not produce resistant mutants | 256 mg/L (≈ 109 µM) | no toxicity | less than 50% | ≥ 50% | decrease in ATP concentration | PC > PG > LTA > Cardio > PE > LPS | 1.13 mN/m/10 sec
2 | CC[C@H](C)[C@H](NC(=O)[C@H](CC(C)C)NC(=O)[C@H](CC(C)C)NC(=O)[C@H](C)NC(=O)CNC(=O)CNC(=O)[C@@H](NC(=O)[C@@H](NC(=O)[C@H](CC(C)C)NC(=O)[C@H](C)NC(=O)[C@H](CC(C)C)NC(=O)CNC(=O)[C@H](CC(C)C)NC(=O)[C@@H](N)C(C)C)[C@@H](C)CC)C(C)C)C(=O)N[C@@H](CCCCN)C(=O)N[C@@H](CCCCN)C(=O)N[C@@H](CCCCN)C(=O)N[C@@H](CCC(N)=O)C(=O)N[C@@H](C)C(=O)N[C@@H](CCCCN)C(=O)N[C@@H](CO)C(N)=O [HG4] (H-VLGLALIVGGALLIKKKQAKS-NH2; N-terminus and C-terminus assumed) | 1–2 fold | did not produce resistant mutants | 512 mg/L (≈ 242 µM) | no toxicity | less than 50% | ≥ 50% | decrease in ATP concentration | PG > cardiolipin > LTA > LPS > PE > PC | 1.20 mN/m/10 sec
